{"source": "patent US11957737B2", "about": "“Methods of treating microbial infection and inflammation” (Colorado Seminary, Owner and Operator of University of …, priority 2017, dated 2024)", "key": {"E. coli (ATCC 25922)": {"test_system": "E. coli (ATCC 25922)", "assay": "standard broth dilutions susceptibility test, read at 600 nm", "assay_type": "cell-based", "protocol": "The following methods were used to conduct the experiments described in Examples 1-3, below: The experiments were conducted using the standard broth dilutions susceptibility test (Jorgensen, J. H.; Turnidge, J. D., Susceptibility test methods: dilution and disk diffusion methods. In Manual of Clinical Microbiology, Eleventh Edition, American Society of Microbiology: 2015; pp 1253-73). Briefly, 1 μl of glycerol stock aliquot of E. coli (ATCC 25922) was inculcated into Tryptic Soya agar (TSA) (Sigma Aldrich 22091) plates and incubated at 37° C. for 24 hrs. Subsequently, 3-5 separate colonies were selected and transferred into 4 ml Tryptic Soya broth (TSB) (Sigma Aldrich 22092) and incubated at 37° C. for 24 hrs. After incubation, samples were diluted 4 ml into 50 ml TSB to make E. coli stock. 200 μl samples were then placed into wells of a 96-microwell plate. All samples were prepared in TSB, (Blank) using TSB, ERGO (OXIS International), LF (Sigma Aldrich) and NLF were diluted to 1 mg/ml. The nitration reaction was prepared following the method reported by Selzle et al (Determination of nitration degrees for the birch pollen allergen Bet v 1. Analytical and Bioanalytical Chemistry 2013, 405(27):8945-49). According to this procedure, 400 μl aliquots of 5.0 mg/ml (±5%) LF in aqueous solution were pipetted into glass vials. […] Using the plate reader (Tecan Infinite, M1000 PRO). […]"}, "[1]": {"assay": "ferrous iron (Fe++) binding capacity of LF", "details": "FIG. 3", "excerpt": "As noted above, LF binds ferrous iron (Fe++) and controls iron distribution throughout the body and its ability to bind to inflammatory and other cell membranes and impact the activities of these cells through its iron binding activities and other mechanisms. The inventors hypothesized that the antibacterial effect may be linked to the iron binding activity of LF and that this antibacterial effect may be disrupted by nitration.\nHowever, sodium peroxinitrite caused changes that went far beyond the mere nitration of a few tyrosine residues to include destruction of tyrosine and tryptophan which at least in part were converted to unidentified reaction products. Nitration can occur as a consequence of the formation of reactive nitrogen species in the body and as a result of drug or chemical reactions, and/or environmental toxins in polluted air, water, or other routes of intake."}}, "data": [{"compound": "C[N+](C)(C)[C@@H](Cc1c[nH]c(=S)[nH]1)C(=O)[O-]", "note": "[ERGO, 3-(2-Sulfanylidene-1,3-dihydroimidazol-4-yl)-2-(trimethylazaniumyl)propanoate]", "values": [{"measurement": "growth of E. coli", "setting": "E. coli (ATCC 25922); LF 1 mg/ml or 2 mg/ml, ERGO 5 mM or 50 mM, compared to growth of E. coli without additions, FIGS. 1A and 1B", "result": "reduced the growth of E. coli"}, {"measurement": "dependence of retained anti-bacterial activity on ERGO concentration", "setting": "E. coli (ATCC 25922); LF exposed to nitrating agents, various concentrations of ERGO, FIG. 2", "result": "related to the concentration of ERGO added"}, {"measurement": "effect of ERGO on the ferrous iron (Fe++) binding capacity of LF", "setting": "[1]", "result": "does not appear that the ability of ERGO to increase the anti-bacterial activity of LF results from binding of Fe++ on LF"}]}]}
